O=Cc1ccc(O)c(Br)c1
solubility (mole fraction)
Conditions | 278.15 K | 283.15 K | 288.15 K | 293.15 K | 298.15 K | 303.15 K | 308.15 K | 313.15 K | 318.15 K | 323.15 K
in 1,4-dioxane | – | – | 0.016 | 0.0188 | 0.022 | 0.0255 | 0.0297 | 0.0345 | 0.0402 | 0.0471
in DMF | 0.0129 | 0.0148 | 0.0171 | 0.02 | 0.0236 | 0.0275 | 0.0321 | 0.0372 | 0.0426 | 0.0488
in DMSO | – | – | – | 0.0177 | 0.0202 | 0.0235 | 0.0278 | 0.0332 | 0.0396 | 0.0467
in acetonitrile | 0.00714 | 0.00815 | 0.00947 | 0.0111 | 0.013 | 0.0152 | 0.0179 | 0.0207 | 0.0238 | 0.0273
in cyclohexane | – | 0.000283 | 0.000369 | 0.000478 | 0.000609 | 0.000766 | 0.000949 | 0.00115 | 0.00139 | 0.00167
in ethanol | 0.00755 | 0.00852 | 0.00981 | 0.0116 | 0.0137 | 0.0161 | 0.0188 | 0.0219 | 0.0254 | 0.0293
in ethyl acetate | 0.00956 | 0.011 | 0.0127 | 0.015 | 0.0176 | 0.0209 | 0.0244 | 0.0287 | 0.0332 | 0.0384
in ethylene glycol | 0.00584 | 0.00666 | 0.00772 | 0.00903 | 0.0107 | 0.0126 | 0.0149 | 0.0177 | 0.0211 | 0.0252
in isobutanol | 0.00978 | 0.0112 | 0.0131 | 0.0155 | 0.0183 | 0.0215 | 0.0251 | 0.0293 | 0.0336 | 0.0386
in isopropanol | 0.0079 | 0.00892 | 0.0104 | 0.0123 | 0.0144 | 0.0171 | 0.0201 | 0.0235 | 0.0272 | 0.0317
in methanol | 0.00568 | 0.00645 | 0.00751 | 0.00881 | 0.0103 | 0.0121 | 0.0142 | 0.0165 | 0.019 | 0.0221
in n-butanol | 0.0106 | 0.0122 | 0.0144 | 0.0168 | 0.0197 | 0.023 | 0.0269 | 0.0313 | 0.0364 | 0.0423
in n-octanol | 0.012 | 0.0138 | 0.0162 | 0.0192 | 0.0226 | 0.0267 | 0.0314 | 0.0365 | 0.0427 | 0.0498
in n-pentanol | 0.0115 | 0.0132 | 0.0153 | 0.0181 | 0.0215 | 0.0252 | 0.0295 | 0.0343 | 0.0401 | 0.0467
in n-propanol | 0.00865 | 0.01 | 0.0117 | 0.0138 | 0.0162 | 0.0191 | 0.0225 | 0.0264 | 0.0308 | 0.0361
in water | 5.93e-05 | 7.11e-05 | 9.02e-05 | 0.000116 | 0.00015 | 0.000196 | 0.00025 | 0.000314 | 0.000395 | 0.000493

Source: BigSolDB 2.1
